Data from PMC12289066, “Identification of glutathione transferase (GST P1) inhibitors via a high-throughput screening assay and implications as alternative treatment options for breast cancers” (PLOS One, 2025).
Where two headings read alike, the source gives them in different places.

What was measured:
[1] = tested on: MCF-7 cells; experiment: MTT cytotoxicity assay, MCF-7; format: cell-based, human; conditions: MTT, 72 h incubation, read-out: IC50 (average ± standard deviation) MCF-7
Description: (§1) L929, MCF-7, and MDA-MB-231 cell lines were cultured in DMEM GlutaMAX media containing 10% heat-inactivated FBS and 1% (v/v) penicillin-streptomycin at 37°C and CO2 (5%). Cytotoxicity was determined using a 3-(4,5-dimethyl 2-thiazolyl)-2,5-diphenyl-2H-tetrazolium bromide (MTT) assay. 100 μL aliquots and approximately 50’000 cells/well were added to each well of flat-bottomed 96-well plates and incubated for 24 h in a humidified chamber at 37°C under saturated air with a 5% CO2 atmosphere. Stock solutions of 10 mM drug compounds were prepared in DMSO and were sequentially diluted with the cell culture buffer to give a final DMSO concentration of 0.5%. The solutions were added to the 96-well plates in 100 μL aliquots and 100 μL of buffer was added as a control to give a final drug compound concentration range of 0 − 100 μM. The plates were incubated for a further 72 h under the same conditions as before. MTT (10 μL, 5 mg/mL in Dulbecco’s phosphate-buffered saline) was added to each well and the plates were incubated for a further 3 h under the same conditions as before. The culture medium was aspirated from each well and the purple formazan crystals, formed by the mitochondrial dehydrogenase activity of vital cells, were dissolved in 100 μL DMSO. The absorbance of the resulting solutions was measured at 570 and 630 nm using a SpectraMax M5e multimode microplate reader and SoftMax Pro software, version 6.2.2. As the absorbance is directly proportional to the number of surviving cells, the percentage of surviving cells was calculated from the absorbance of wells relative to the control. The reported IC50 values are based on the mean from four independent experiments, each comprising three replicates per concentration.

[2] = molecular target: T1, GST P1-1 (Homo sapiens, UniProt P09211); experiment: High-throughput GST P1-1 inhibition assay (384-well screen, CDNB/GSH); format: biochemical; conditions: compound 10 μM; score 0 = negative control (DMSO), 1 = positive control (EA 50 μM); average of duplicate
T1 construct: purchased Sigma-Aldrich
Description: (§2) Each drug compound was added to the respective well at a volume of 80 nL of 10 mM stock solution in DMSO, yielding a final compound concentration of 10 μM and a final DMSO concentration of 0.1%. Each plate’s first and last two columns were used as negative (no compound added – 80 nL per well of DMSO) and positive (80 nL of EA added with a final concentration of 50 μM) controls, respectively. The Gyger Certus Flex dispenser was set up using a freshly prepared 1 mM of GSH and 20 nM of GST P1-1, pH 7.4, in one syringe and 8 mM CDNB solution in pure ethanol in the other syringe. Into each well 80 μL of GST-GSH solution was dispensed and incubated at 25°C for 20 minutes before the reaction was initiated by the addition of 4 μL of CDNB solution. The plates were incubated for 2 h in the dark at 25°C and then the absorbance was of each well recorded on a BioTek Synergy NEO HTS multimode plate reader (Agilent®) at a wavelength of 340 nm.
The z’factor was calculated for each plate according to Zhang et al.. The Z-factor is a dimensionless, simple statistical characteristic for each HTS assay. This provides a valuable tool for the comparison and assessment of the quality of assays, and can be utilized in assay optimization and validation. For each plate, the concentration of product was normalized by assigning a score of 0 (0%) to the negative control (average of maximal concentration of product measured in the presence of enzyme without any inhibitor) and a score of 1 (100%) was assigned to the positive control (average minimal concentration of product measured in the presence of enzyme with the reference inhibitor, i.e., EA). The experiment was performed in duplicate and the score for each drug compound was calculated as an average ± standard deviation. […] An internal laboratory information management system (LIMS) was used for basic data processing, management, visualization, and statistical hit validation.

[3] = tested on: L929 cells; experiment: MTT cytotoxicity assay, L929; format: cell-based, mouse; conditions: MTT, 72 h incubation, read-out: IC50 (average ± standard deviation) L929
Description: as §1, with “Cytotoxicity” for “L929, MCF-7, and MDA-MB-231 cell lines were cultured in DMEM GlutaMAX media containing 10% heat-inactivated FBS and 1% (v/v) penicillin-streptomycin at 37°C and CO2 (5%). Cytotoxicity”, “Stock solutions of 10 mM drug compounds were prepared in DMSO and were sequentially diluted with the cell culture buffer to give a final DMSO concentration of 0.5%. The solutions were added to the 96-well plates in 100 μL aliquots and 100 μL of buffer was added as a control to give a final drug compound concentration range of 0 − 100 μM.” left out

[4] = tested on: MDA-MB-231 cells; experiment: MTT cytotoxicity assay, MDA-MB-231; format: cell-based, human; conditions: MTT, 72 h incubation, read-out: IC50 (average ± standard deviation) MDA-MB-231
Description: as §1

[5] = molecular target: T1, GST P1-1; experiment: Determination of IC50 for GST P1-1 enzyme (dose-response / reconfirmation assay); format: biochemical
Description: as §2
The IC50 of the GST P1-1 enzyme was determined for the 80 drug compounds with the highest score in the GST P1-1 screening assay. The assay conditions were used for the screening assay and each drug compound was tested at 8 different concentrations (μM) starting at 30 µM final assay concentration with a half-log dilution and 2 replicates per concentration.

[6] = Table 2, rounded values, read-out: IC50 GSTP1 enzymatic reaction
[7] = reconfirmation assay, Table S2, read-out: IC50 GSTP1

T1 sequence (P09211 2-210 limits assumed): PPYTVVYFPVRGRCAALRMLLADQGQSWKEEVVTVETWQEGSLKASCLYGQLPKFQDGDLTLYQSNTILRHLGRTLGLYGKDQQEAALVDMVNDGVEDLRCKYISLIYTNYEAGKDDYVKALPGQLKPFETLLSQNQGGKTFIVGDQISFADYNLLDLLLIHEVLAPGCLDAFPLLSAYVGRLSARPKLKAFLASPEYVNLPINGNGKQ

Compound	IC50 [1] [µM]	Score [2]	IC50 [3] [µM]	IC50 [4] [µM]	IC50 [5, 6] [nM]	Hill Slope (dose-response curve) ([5]; reconfirmation assay)	IC50 [5, 7] [nM]	IC50 ([1]; Homo sapiens, MCF7) [µM]	IC50 ([3]; Mus musculus, L929) [µM]	IC50 ([4]; Homo sapiens, MDA-MB-231) [µM]
O=C(O)c1ccc2cc(-c3ccc(O)c(C45CC6CC(CC(C6)C4)C5)c3)ccc2c1 [CD437]	0.51 ± 0.05	0.939	0.24 ± 0.03	0.74 ± 0.07	300	11.6	320	–	–	–
Oc1c(Cl)cc(Cl)c(Cl)c1Cc1c(O)c(Cl)cc(Cl)c1Cl [Hexachlorophene]	–	1.077	–	–	400	2.2	420	14 ± 1	11 ± 1	9 ± 1
C=CC(=O)c1ccc2ccccc2c1 [ZM 449829]	6.8 ± 0.2	–	8.1 ± 0.4	10.3 ± 0.2	1400	1.3	–	–	–	–
Cl.O=C(O)Cc1cccc(OCCCN(Cc2cccc(C(F)(F)F)c2Cl)CC(c2ccccc2)c2ccccc2)c1 [GW3965 (hydrochloride)]	25 ± 1	1.027	24 ± 2	54 ± 1	400	2.48	430	–	–	–
O=C(O)c1cc(N2N=C(C(F)(F)F)/C(=C/c3ccc(-c4ccccc4)o3)C2=O)ccc1Cl [en460]	10 ± 1	0.837	18 ± 2	19 ± 1	1100	1.4	–	–	–	–
O=C1CC(=O)c2c(Cl)c(Cl)c(Cl)c(Cl)c21 [TCID]	> 100	1.094	> 100	> 100	900	1.16	–	–	–	–
O=C(O)c1ccc(S(=O)(=O)N(Cc2ccc(OC(F)(F)F)cc2)c2ncc(C(F)(F)F)cc2Cl)cc1 [RQ-00203078]	17 ± 2	0.697	42 ± 6	51 ± 6	3100	1.6	–	–	–	–
O=C(O)c1c(Sc2ccccc2)c2cc(Cl)ccc2n1Cc1ccc(Cl)cc1 [nTZDpa]	39 ± 2	0.909	36 ± 3	95 ± 4	950	1.7	–	–	–	–
C[C@@H]1Cc2c([nH]c3ccccc23)[C@@H](c2c(F)cc(/C=C/C(=O)O)cc2F)N1CC(C)(C)F [AZD9496]	–	0.806	–	–	2100	2.23	2050	14 ± 1	36 ± 4	47 ± 5
Cc1cc(=O)n(-c2ccccc2)[nH]1 [5-Methyl-2-phenyl-1,2-dihydropyrazol-3-one]	–	–	–	–	800	0.8	830	> 100	> 100	> 100
O=C(O)c1ccccc1Nc1ccc(CCc2ccc(Cl)c(Cl)c2)cc1 [PD-118057]	41 ± 4	0.858	> 100	> 100	300	1.8	330	–	–	–
CCCCCCCCCCCC1=C(O)C(=O)C=C(O)C1=O [Embelin]	–	0.935	–	–	600	1.46	640	11 ± 1	14 ± 1	12 ± 1
Cc1cc(O)c2c(=O)c3c(O)cc(O)c4c5c(O)cc(O)c6c(=O)c7c(O)cc(C)c8c1c2c(c34)c(c78)c65 [Hypericin]	–	0.774	–	–	100	11.6	–	8 ± 1	19 ± 1	26 ± 3
O=C(O)[C@]1(Cc2cccc(Nc3nccs3)n2)CC[C@@H](Oc2cccc(Cl)c2F)CC1 [MK-5108]	–	0.933	–	–	3200	13.6	–	3.4 ± 0.8	2.2 ± 0.5	> 100
PSB 06126	45 ± 3	0.962	39 ± 4	> 100	300	3.4	290	–	–	–
N#Cc1c(-c2ccccc2)cc(-c2cc(Br)ccc2O)[nH]c1=O [TCS PIM-1 1]	74 ± 4	0.813	36 ± 3	> 100	2200	2.5	2150	–	–	–
C=C(CC)C(=O)c1ccc(OCC(=O)O)c(Cl)c1Cl [Ethacrynic acid, EA, Ethacrynic acid]	–	–	–	–	–	–	–	13 ± 1	> 100	14 ± 1
